Data from paper PMC5908784, “Extracellular loops 2 and 3 of the calcitonin receptor selectively modify agonist binding and efficacy” (Biochemical Pharmacology, 2018).
Positions count from the first letter of the chain named. Read-outs that look alike come from different tables or passages of the source. Where a SMILES comes first, the peptide text is derived from it. Bridges are numbered along the chain shown (N, C = ends).

Tests used:
Type in all cases: cell-based
[1] = target: T1, hCTR F356A (Homo sapiens, UniProt P30988, F356A); assay: IP1 accumulation; details: SEM, read-out: Emax (% WT)
T1 construct: c-Myc (N); expressed in transfected cells
T1 sequence (P30988 25-474 F356A): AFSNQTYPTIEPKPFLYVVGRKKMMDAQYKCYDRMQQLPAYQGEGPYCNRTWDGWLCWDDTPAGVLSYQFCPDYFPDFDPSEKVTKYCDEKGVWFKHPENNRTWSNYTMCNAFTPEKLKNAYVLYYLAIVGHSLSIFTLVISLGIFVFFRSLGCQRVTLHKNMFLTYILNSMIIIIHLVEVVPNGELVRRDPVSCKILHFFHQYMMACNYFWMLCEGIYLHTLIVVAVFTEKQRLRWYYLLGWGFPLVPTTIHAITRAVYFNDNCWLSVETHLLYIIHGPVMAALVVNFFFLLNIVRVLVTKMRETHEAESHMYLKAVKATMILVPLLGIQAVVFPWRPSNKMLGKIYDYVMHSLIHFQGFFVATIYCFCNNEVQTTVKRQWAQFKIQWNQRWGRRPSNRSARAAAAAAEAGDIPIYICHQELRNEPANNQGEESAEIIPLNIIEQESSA
Procedure, shortened: (§1)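 Ligand-induced IP1 (60 min, LiCl) measured by HTRF; normalized to 100 μM ATP response.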

[2] = target: T2, hCTR H296A (Homo sapiens, UniProt P30988, H296A); assay: IP1 accumulation; details: mean ± S.E.M.; for Emax: IP1 maximal response, SEM
T2 construct: c-Myc (N); expressed in transfected cells
T2 sequence (P30988 25-474 H296A): T1 sequence (P30988 25-474 F356A) with H272A, A332F
Procedure, shortened: as §1

[3] = target: T3, hCTR V358A (Homo sapiens, UniProt P30988, V358A); assay: IP1 accumulation; details: mean ± S.E.M.; for Emax: IP1 maximal response, SEM
T3 construct: c-Myc (N); expressed in transfected cells
T3 sequence (P30988 25-474 V358A): T1 sequence (P30988 25-474 F356A) with A332F, V334A
Procedure, shortened: as §1

[4] = target: T4, hCTR WT (Homo sapiens, UniProt P30988); assay: IP1 accumulation; details: for Emax: read-out: Emax (% WT), SEM
T4 construct: expressed in transfected cells
T4 sequence (P30988 25-474): T1 sequence (P30988 25-474 F356A) with A332F
Procedure, shortened: as §1

[5] = target: T5, hCTR W290A (Homo sapiens, UniProt P30988, W290A); assay: ERK1/2 phosphorylation; details: CV1-FlpIn cells, mean ± S.E.M.; for Emax: pERK maximal response
T5 construct: c-Myc (N); expressed in transfected cells
T5 sequence (P30988 25-474 W290A): T1 sequence (P30988 25-474 F356A) with W266A, A332F
Procedure, shortened: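 First, cells (2.5 × 10^4 per well) were plated and left overnight. Agonist concentration-response data were then scaled to the peak signal given by 10% FBS at 6 min. Finally, a 3-parameter logistic equation yielded EC50 and Emax.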

[6] = IP1, CV1-FlpIn cells, 60 min, LiCl

Structure (SMILES)	Emax ([1]; F356A, IP1 maximal response, mean ± S.E.M.)	Emax [2]	Emax [3]	Emax [4]	Emax [5]	Emax [1]	EC50 [2, 6]	EC50 [3, 6]	EC50 ([4]; WT, IP1, CV1-FlpIn cells, 60 min, LiCl, mean ± S.E.M.)	Emax ([4]; WT, IP1 maximal response, mean ± S.E.M.)	EC50 ([5]; pERK, three-parameter logistic fit)
CC(C)C[C@H](NC(=O)[C@H](CCCCN)NC(=O)CNC(=O)[C@H](CC(C)C)NC(=O)[C@@H](NC(=O)[C@@H]1CSSC[C@H](N)C(=O)N[C@@H](CO)C(=O)N[C@@H](CC(N)=O)C(=O)N[C@@H](CC(C)C)C(=O)N[C@@H](CO)C(=O)N[C@@H]([C@@H](C)O)C(=O)N1)C(C)C)C(=O)N[C@@H](CO)C(=O)N[C@@H](CCC(N)=O)C(=O)N[C@@H](CCC(=O)O)C(=O)N[C@@H](CC(C)C)C(=O)N[C@@H](Cc1c[nH]cn1)C(=O)N[C@@H](CCCCN)C(=O)N[C@@H](CC(C)C)C(=O)N[C@@H](CCC(N)=O)C(=O)N[C@H](C(=O)N[C@@H](Cc1ccc(O)cc1)C(=O)N1CCC[C@H]1C(=O)N[C@@H](CCCNC(=N)N)C(=O)N[C@H](C(=O)N[C@@H](CC(N)=O)C(=O)N[C@H](C(=O)NCC(=O)N[C@@H](CO)C(=O)NCC(=O)N[C@H](C(=O)N1CCC[C@H]1C(N)=O)[C@@H](C)O)[C@@H](C)O)[C@@H](C)O)[C@@H](C)O [sCT]	36 ± 3%	101 ± 5%	123 ± 6%	100 ± 3%	38 ± 4%	–	–	–	–	–	–
CC[C@H](C)[C@H](NC(=O)[C@H](C)NC(=O)[C@@H](NC(=O)[C@H](CCC(N)=O)NC(=O)[C@@H]1CCCN1C(=O)[C@H](Cc1ccccc1)NC(=O)[C@@H](NC(=O)[C@H](Cc1c[nH]cn1)NC(=O)[C@H](Cc1ccccc1)NC(=O)[C@H](CCCCN)NC(=O)[C@H](CC(N)=O)NC(=O)[C@H](Cc1ccccc1)NC(=O)[C@H](CC(=O)O)NC(=O)[C@H](CCC(N)=O)NC(=O)[C@@H](NC(=O)[C@H](Cc1ccc(O)cc1)NC(=O)[C@@H](NC(=O)CNC(=O)[C@H](CC(C)C)NC(=O)[C@H](CCSC)NC(=O)[C@@H]1CSSC[C@H](N)C(=O)NCC(=O)N[C@@H](CC(N)=O)C(=O)N[C@@H](CC(C)C)C(=O)N[C@@H](CO)C(=O)N[C@@H]([C@@H](C)O)C(=O)N1)[C@@H](C)O)[C@@H](C)O)[C@@H](C)O)[C@@H](C)O)C(=O)NCC(=O)N[C@H](C(=O)NCC(=O)N[C@@H](C)C(=O)N1CCC[C@H]1C(N)=O)C(C)C [hCT]	–	73 ± 6%	126 ± 9%	100 ± 3%	–	69 ± 6%	–	–	–	–	–
CSCC[C@H](NC(=O)CNC(=O)[C@H](CO)NC(=O)[C@H](Cc1ccccc1)NC(=O)[C@H](CCCNC(=N)N)NC(=O)[C@H](Cc1c[nH]cn1)NC(=O)[C@H](Cc1ccccc1)NC(=O)[C@H](CC(N)=O)NC(=O)[C@H](CC(N)=O)NC(=O)[C@H](CC(C)C)NC(=O)[C@H](CC(N)=O)NC(=O)[C@H](CCCNC(=N)N)NC(=O)[C@H](Cc1c[nH]c2ccccc12)NC(=O)[C@H](Cc1ccc(O)cc1)NC(=O)[C@H](C)NC(=O)[C@H](CO)NC(=O)[C@H](CC(C)C)NC(=O)[C@@H](NC(=O)[C@@H]1CSSC[C@H](N)C(=O)N[C@@H](CO)C(=O)N[C@@H](CC(N)=O)C(=O)N[C@@H](CC(C)C)C(=O)N[C@@H](CO)C(=O)N[C@@H]([C@@H](C)O)C(=O)N1)C(C)C)C(=O)NCC(=O)N[C@@H](Cc1ccccc1)C(=O)NCC(=O)N1CCC[C@H]1C(=O)N[C@@H](CCC(=O)O)C(=O)N[C@H](C(=O)N1CCC[C@H]1C(N)=O)[C@@H](C)O [pCT] (H-CSNLSTCVLSAYWRNLNNFHRFSGMGFGPETP-NH2; disulfide 1-7)	–	101 ± 7%	73 ± 6%	–	28 ± 3%	–	4.47 nM	3.31 nM	1.38 nM	100 ± 3%	7.41 nM
